# System: 616215-338-R-J1-PDC spheroids with HUVEC/MSC, viability
# Assay: Anticancer human tumor 616215-338-R-J1-PDC patient-derived colon adenocarcinoma cell line growth inhibition [PI3K]
# Conditions: for IC50: curve of first compound; for viability, T/C: stronger effect = lower value
# In short: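 Tumor cells grown as multi-cell spheroids with HUVEC endothelial cells and MSC fibroblast-like stroma were treated with targeted agents combined with inavolisib, alpelisib, duvelisib or copanlisib. Doses fell in half-log steps from near clinical Cmax, else from 10 microM. Viability was measured.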
# [1] = second compound 0.00316 µM, first compound 0.0316 µM
# [2] = second compound 0.00316 µM, first compound 0.1 µM
# [3] = second compound 0.00316 µM, first compound 0.316 µM
# [4] = second compound 0.00316 µM, first compound 1 µM
# [5] = second compound 0.00316 µM, first compound 3.16 µM
# [6] = second compound 0.00316 µM, first compound 10 µM
# [7] = second compound 0.01 µM, first compound 0.0316 µM
# [8] = second compound 0.01 µM, first compound 0.1 µM
# [9] = second compound 0.01 µM, first compound 0.316 µM
# [10] = second compound 0.01 µM, first compound 1 µM
# [11] = second compound 0.01 µM, first compound 3.16 µM
# [12] = second compound 0.01 µM, first compound 10 µM
# [13] = second compound 0.0316 µM, first compound 0.0316 µM
# [14] = second compound 0.0316 µM, first compound 0.1 µM
# [15] = second compound 0.0316 µM, first compound 0.316 µM
# [16] = second compound 0.0316 µM, first compound 1 µM
# [17] = second compound 0.0316 µM, first compound 3.16 µM
# [18] = second compound 0.0316 µM, first compound 10 µM
# [19] = second compound 0.1 µM, first compound 0.0316 µM
# [20] = second compound 0.1 µM, first compound 0.1 µM
# [21] = second compound 0.1 µM, first compound 0.316 µM
# [22] = second compound 0.1 µM, first compound 1 µM
# [23] = second compound 0.1 µM, first compound 3.16 µM
# [24] = second compound 0.1 µM, first compound 10 µM
# [25] = second compound 0.316 µM, first compound 0.0316 µM
# [26] = second compound 0.316 µM, first compound 0.1 µM
# [27] = second compound 0.316 µM, first compound 0.316 µM
# [28] = second compound 0.316 µM, first compound 1 µM
# [29] = second compound 0.316 µM, first compound 3.16 µM
# [30] = second compound 0.316 µM, first compound 10 µM
# [31] = second compound 1 µM, first compound 0.0316 µM
# [32] = second compound 1 µM, first compound 0.1 µM
# [33] = second compound 1 µM, first compound 0.316 µM
# [34] = second compound 1 µM, first compound 1 µM
# [35] = second compound 1 µM, first compound 3.16 µM
# [36] = second compound 1 µM, first compound 10 µM
# 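Note: spheroids exposed to agents for seven days before the viability read.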
smiles,measurement,setting,value
CC1(C)CCC(Nc2ncc(C(F)(F)F)c(-c3c[nH]c4c(P(C)(C)=O)c(C#N)ccc34)n2)CN1 (stereo unspecified) + COc1c(OCCCN2CCOCC2)ccc2c3n(c(=NC(=O)c4cnc(N)nc4)nc12)CCN3,IC50,second compound 0.00316 µM,< 0.0316 µM
same,IC50,second compound 0.01 µM,< 0.0316 µM
same,IC50,second compound 0.0316 µM,< 0.0316 µM
same,IC50,second compound 0.1 µM,0.188 µM
same,IC50,second compound 0.316 µM,< 0.0316 µM
same,IC50,second compound 1 µM,< 0.0316 µM
same,"viability, T/C",[1],47.5%
same,"viability, T/C",[2],43.1%
same,"viability, T/C",[3],31.6%
same,"viability, T/C",[4],56.8%
same,"viability, T/C",[5],48.9%
same,"viability, T/C",[6],0.29%
same,"viability, T/C",[7],40.2%
same,"viability, T/C",[8],29%
same,"viability, T/C",[9],38.7%
same,"viability, T/C",[10],72.4%
same,"viability, T/C",[11],44.5%
same,"viability, T/C",[12],0.67%
same,"viability, T/C",[13],34.5%
same,"viability, T/C",[14],33.7%
same,"viability, T/C",[15],41.5%
same,"viability, T/C",[16],44.8%
same,"viability, T/C",[17],37.4%
same,"viability, T/C",[18],0.14%
same,"viability, T/C",[19],63.7%
same,"viability, T/C",[20],43.8%
same,"viability, T/C",[21],47.6%
same,"viability, T/C",[22],41.6%
same,"viability, T/C",[23],21.4%
same,"viability, T/C",[24],0.09%
same,"viability, T/C",[25],29.9%
same,"viability, T/C",[26],23.8%
same,"viability, T/C",[27],20.1%
same,"viability, T/C",[28],18.9%
same,"viability, T/C",[29],8.61%
same,"viability, T/C",[30],0.69%
same,"viability, T/C",[31],20%
same,"viability, T/C",[32],19.6%
same,"viability, T/C",[33],14.9%
same,"viability, T/C",[34],16.1%
same,"viability, T/C",[35],8.67%
same,"viability, T/C",[36],0.24%
CC(C)NCC(C(=O)N1CCN(c2ncnc3c2C(C)CC3O)CC1)c1ccc(Cl)cc1 (stereo unspecified) + CC(Nc1ncnc2nc[nH]c12)c1cc2cccc(Cl)c2c(=O)n1-c1ccccc1,IC50,second compound 0.0316 µM,4.16 µM
same,IC50,second compound 0.1 µM,3.77 µM
same,IC50,second compound 0.316 µM,4.74 µM
same,IC50,second compound 1 µM,5.08 µM
same,IC50,second compound 3.16 µM,4.13 µM
same,IC50,second compound 10 µM,3.54 µM
same,"viability, T/C",[13],91.7%
same,"viability, T/C",[14],93.4%
same,"viability, T/C",[15],94.4%
same,"viability, T/C",[16],87.2%
same,"viability, T/C",[17],57.9%
same,"viability, T/C",[18],24.9%
same,"viability, T/C",[19],103%
same,"viability, T/C",[20],86.7%
same,"viability, T/C",[21],91%
same,"viability, T/C",[22],94.2%
same,"viability, T/C",[23],54.8%
same,"viability, T/C",[24],23.5%
same,"viability, T/C",[25],90.5%
same,"viability, T/C",[26],95%
same,"viability, T/C",[27],83.7%
same,"viability, T/C",[28],94%
same,"viability, T/C",[29],65.2%
same,"viability, T/C",[30],21.9%
same,"viability, T/C",[31],90.3%
same,"viability, T/C",[32],90.8%
same,"viability, T/C",[33],101%
same,"viability, T/C",[34],109%
same,"viability, T/C",[35],67.2%
same,"viability, T/C",[36],25.4%
same,"viability, T/C","second compound 3.16 µM, first compound 0.0316 µM",89.2%
same,"viability, T/C","second compound 3.16 µM, first compound 0.1 µM",101%
same,"viability, T/C","second compound 3.16 µM, first compound 0.316 µM",99.8%
same,"viability, T/C","second compound 3.16 µM, first compound 1 µM",79.9%
same,"viability, T/C","second compound 3.16 µM, first compound 3.16 µM",58.4%
same,"viability, T/C","second compound 3.16 µM, first compound 10 µM",26.2%
same,"viability, T/C","second compound 10 µM, first compound 0.0316 µM",105%
same,"viability, T/C","second compound 10 µM, first compound 0.1 µM",104%
same,"viability, T/C","second compound 10 µM, first compound 0.316 µM",100%
same,"viability, T/C","second compound 10 µM, first compound 1 µM",91.7%
same,"viability, T/C","second compound 10 µM, first compound 3.16 µM",52.2%
same,"viability, T/C","second compound 10 µM, first compound 10 µM",27.8%
CCCS(=O)(=O)Nc1ccc(F)c(C(=O)c2c[nH]c3ncc(-c4ccc(Cl)cc4)cc23)c1F + COc1c(OCCCN2CCOCC2)ccc2c3n(c(=NC(=O)c4cnc(N)nc4)nc12)CCN3,IC50,second compound 0.00316 µM,4.83 µM
same,IC50,second compound 0.01 µM,5.11 µM
same,IC50,second compound 0.0316 µM,4.93 µM
same,IC50,second compound 0.1 µM,2.86 µM
same,IC50,second compound 0.316 µM,< 0.0316 µM
same,IC50,second compound 1 µM,< 0.0316 µM
same,"viability, T/C",[1],91.8%
same,"viability, T/C",[2],96.1%
same,"viability, T/C",[3],99%
same,"viability, T/C",[4],97.9%
same,"viability, T/C",[5],77.9%
same,"viability, T/C",[6],2.29%
same,"viability, T/C",[7],105%
same,"viability, T/C",[8],104%
same,"viability, T/C",[9],98.3%
same,"viability, T/C",[10],94.7%
same,"viability, T/C",[11],84.9%
same,"viability, T/C",[12],3.47%
same,"viability, T/C",[13],105%
same,"viability, T/C",[14],107%
same,"viability, T/C",[15],120%
same,"viability, T/C",[16],106%
same,"viability, T/C",[17],77%
same,"viability, T/C",[18],7.26%
same,"viability, T/C",[19],99%
same,"viability, T/C",[20],92.8%
same,"viability, T/C",[21],87.3%
same,"viability, T/C",[22],93.7%
same,"viability, T/C",[23],45.9%
same,"viability, T/C",[24],9.33%
same,"viability, T/C",[25],53.8%
same,"viability, T/C",[26],35.7%
same,"viability, T/C",[27],38.9%
same,"viability, T/C",[28],38.5%
same,"viability, T/C",[29],27%
same,"viability, T/C",[30],5.18%
same,"viability, T/C",[31],23.3%
same,"viability, T/C",[32],29.3%
same,"viability, T/C",[33],21.3%
same,"viability, T/C",[34],20.1%
same,"viability, T/C",[35],18.7%
same,"viability, T/C",[36],3.73%
